# In US20250195521A1 (Revolution Medicines, Inc., priority 2020, published 2025):
# pIC50: −log10 of the molar value.
# Key:
# NCI-H358 (K-Ras G12C) = assay: CellTiter-Glo cell viability assay, NCI-H358; type: cell-based, human; settings: Homo sapiens, NCI-H358, 120 h, 5-day treatment; read-out: H358 Cell Viability assay data (K-Ras G12C, IC50)
# Procedure, shortened: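 Viability is measured as ATP-dependent luminescence (CellTiter-Glo) five days into compound treatment. Responses are normalized to vehicle (DMSO) wells and fitted by four-parameter logistic regression.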
# KRAS WT = KRAS WT (Homo sapiens (Human), UniProt P01116+P62937); assay: Ras-Raf disruption/FRET/MOA assay (BRAF RBD, Cyclophilin A); type: biochemical; settings: read-out: KRAS WT FRET data IC50
# Procedure, shortened: (§1)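 His6-K-Ras-GMPPNP (12.5 nM), GST-BRAF RBD (50 nM) and tagless Cyclophilin A (25 μM) were combined in 25 mM HEPES pH 7.3 with 100 mM NaCl, 5 mM MgCl2, 0.1% BSA and 0.002% Tween20, with compound as a 10-point 3-fold series from 30 μM final, then incubated 3 h at 25° C.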
# NRAS G12C = NRAS G12C (Homo sapiens (Human), UniProt P01111+P62937, G12C); assay: as above; type: biochemical; settings: read-out: NRAS G12C FRET data IC50
# Procedure, shortened: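 Ras-GMPPNP (12.5 nM), BRAF RBD (50 nM) and 25 μM Cyclophilin A were incubated with compound for 3 h at 25° C, then detected 1.5 h with anti-His Eu and anti-GST APC; IC50 values follow from the reduced TR-FRET ratio.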
# KRAS G13D = KRAS G13D (Homo sapiens (Human), UniProt P01116+P62937, G13D); assay: as above; type: biochemical; settings: read-out: KRAS G13D FRET data IC50
# Procedure, shortened: as §1
# KRAS G13C = KRAS G13C (Homo sapiens (Human), UniProt P01116+P62937, G13C); assay: as above; type: biochemical; settings: read-out: KRAS G13C FRET IC50
# Procedure, shortened: as §1
# KRAS G12D = KRAS G12D (Homo sapiens (Human), UniProt P01116+P62937, G12D); assay: as above; type: biochemical; settings: read-out: KRAS G12D FRET IC50
# Procedure, shortened: as §1
# KRAS G12S = KRAS G12S (Homo sapiens (Human), UniProt P01116+P62937, G12S); assay: as above; type: biochemical; settings: read-out: KRAS G12S FRET IC50
# Procedure, shortened: as §1
# KRAS G12C = KRAS G12C (Homo sapiens (Human), UniProt P01116+P62937, G12C); assay: as above; type: biochemical; settings: read-out: KRAS G12C FRET IC50
# Procedure, shortened: as §1
# KRAS G12V = KRAS G12V (Homo sapiens (Human), UniProt P01116+P62937, G12V); assay: as above; type: biochemical; settings: read-out: KRAS G12V FRET IC50
# Procedure, shortened: as §1
# Chain of KRAS G12D (P01116 other isoform, or with tags, fused parts or gaps G12D): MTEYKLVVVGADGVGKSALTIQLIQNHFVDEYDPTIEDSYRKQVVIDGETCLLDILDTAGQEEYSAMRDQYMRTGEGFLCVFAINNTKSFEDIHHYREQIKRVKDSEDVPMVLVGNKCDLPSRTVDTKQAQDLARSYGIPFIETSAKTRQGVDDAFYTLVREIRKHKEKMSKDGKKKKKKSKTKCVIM
# Chain of KRAS G12D (P62937 whole entry): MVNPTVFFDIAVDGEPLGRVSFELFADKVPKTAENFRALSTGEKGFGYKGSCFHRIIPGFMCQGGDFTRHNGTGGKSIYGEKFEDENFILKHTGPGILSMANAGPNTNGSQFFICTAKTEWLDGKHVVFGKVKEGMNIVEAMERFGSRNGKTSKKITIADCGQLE
# Chain of KRAS G13C (P01116 other isoform, or with tags, fused parts or gaps G13C): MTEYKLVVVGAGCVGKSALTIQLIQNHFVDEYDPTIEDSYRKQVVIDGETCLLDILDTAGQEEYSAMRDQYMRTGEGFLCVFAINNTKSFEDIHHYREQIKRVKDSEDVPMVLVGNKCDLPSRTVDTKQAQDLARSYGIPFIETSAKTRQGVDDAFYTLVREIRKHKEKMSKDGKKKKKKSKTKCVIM
# Chain of KRAS G13C (P62937 whole entry): as the sequence (P62937 whole entry) above
# Chain of KRAS G12V (P01116 other isoform, or with tags, fused parts or gaps G12V): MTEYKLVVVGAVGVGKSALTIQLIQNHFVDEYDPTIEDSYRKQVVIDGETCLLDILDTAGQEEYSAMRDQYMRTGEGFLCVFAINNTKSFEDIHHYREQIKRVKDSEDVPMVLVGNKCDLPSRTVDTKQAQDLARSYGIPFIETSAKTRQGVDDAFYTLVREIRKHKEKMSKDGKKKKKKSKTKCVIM
# Chain of KRAS G12V (P62937 whole entry): as the sequence (P62937 whole entry) above
# Chain of KRAS G12C (P01116-2 other isoform, or with tags, fused parts or gaps G12C): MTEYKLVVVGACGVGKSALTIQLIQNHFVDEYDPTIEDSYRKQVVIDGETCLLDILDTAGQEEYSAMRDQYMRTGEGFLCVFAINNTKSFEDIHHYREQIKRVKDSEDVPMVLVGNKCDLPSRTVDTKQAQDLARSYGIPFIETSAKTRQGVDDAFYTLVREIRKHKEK
# Chain of KRAS G12C (P62937 whole entry): as the sequence (P62937 whole entry) above
# Chain of KRAS WT (P01116 other isoform, or with tags, fused parts or gaps): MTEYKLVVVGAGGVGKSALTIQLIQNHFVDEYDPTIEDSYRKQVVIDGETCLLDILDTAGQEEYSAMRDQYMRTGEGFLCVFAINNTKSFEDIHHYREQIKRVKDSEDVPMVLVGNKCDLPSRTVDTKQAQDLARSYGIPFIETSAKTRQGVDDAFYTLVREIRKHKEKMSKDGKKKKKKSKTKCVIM
# Chain of KRAS WT (P62937 whole entry): as the sequence (P62937 whole entry) above
# Chain of NRAS G12C (P01111 whole entry G12C): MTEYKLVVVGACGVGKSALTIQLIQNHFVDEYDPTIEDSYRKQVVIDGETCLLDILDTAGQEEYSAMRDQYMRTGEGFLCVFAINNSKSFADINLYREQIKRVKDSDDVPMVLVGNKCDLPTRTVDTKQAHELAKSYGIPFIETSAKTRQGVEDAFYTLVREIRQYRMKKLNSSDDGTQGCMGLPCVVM
# Chain of NRAS G12C (P62937 whole entry): as the sequence (P62937 whole entry) above
# Chain of KRAS G13D (P01116 other isoform, or with tags, fused parts or gaps G13D): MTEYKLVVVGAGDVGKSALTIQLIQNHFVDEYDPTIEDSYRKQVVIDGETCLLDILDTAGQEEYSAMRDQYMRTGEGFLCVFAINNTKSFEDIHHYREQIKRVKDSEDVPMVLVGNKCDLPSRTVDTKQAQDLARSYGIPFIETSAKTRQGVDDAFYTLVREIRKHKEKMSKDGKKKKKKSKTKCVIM
# Chain of KRAS G13D (P62937 whole entry): as the sequence (P62937 whole entry) above
# Chain of KRAS G12S (P01116 other isoform, or with tags, fused parts or gaps G12S): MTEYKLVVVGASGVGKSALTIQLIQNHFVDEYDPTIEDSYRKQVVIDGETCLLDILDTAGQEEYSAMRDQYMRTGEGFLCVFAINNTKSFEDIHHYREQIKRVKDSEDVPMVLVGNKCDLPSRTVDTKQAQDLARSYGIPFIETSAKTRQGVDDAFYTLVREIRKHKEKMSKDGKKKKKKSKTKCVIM
# Chain of KRAS G12S (P62937 whole entry): as the sequence (P62937 whole entry) above
Compound,pIC50 (NCI-H358 (K-Ras G12C)),pIC50 (KRAS WT),pIC50 (NRAS G12C),pIC50 (KRAS G13D),pIC50 (KRAS G13C),pIC50 (KRAS G12D),pIC50 (KRAS G12S),pIC50 (KRAS G12C),pIC50 (KRAS G12V)
CCn1c(-c2cccnc2[C@H](C)OC)c2c3cc(ccc31)-c1cc(O)cc(c1)C[C@H](NC(=O)[C@@H]1[C@@H](C)CCCN1C(C)=O)C(=O)N1CCC[C@H](N1)C(=O)OCC(C)(C)C2 [Compound A324],> 8.00,6.00 to 7.00,6.00 to 7.00,6.00 to 7.00,7.00 to 8.00,5.00 to 6.00,6.00 to 7.00,6.00 to 7.00,6.00 to 7.00
CCn1c(-c2cccnc2[C@H](C)OC)c2c3cc(ccc31)-c1csc(n1)C[C@H](NC(=O)[C@H](C(C)C)N(C)C(=O)N1CC(N3CCOCC3)C1)C(=O)N1CCC[C@H](N1)C(=O)OCC(C)(C)C2 [Compound A338],7.00 to 8.00,6.00 to 7.00,7.00 to 8.00,6.00 to 7.00,6.00 to 7.00,5.00 to 6.00,6.00 to 7.00,7.00 to 8.00,6.00 to 7.00
CCN(CC)C(=O)N(C)[C@H](C(=O)N[C@H]1Cc2nc(cs2)-c2ccc3c(c2)c(c(-c2cccnc2[C@H](C)OC)n3CC)CC(C)(C)COC(=O)[C@@H]2CCCN(N2)C1=O)C(C)C [Compound A351],> 8.00,7.00 to 8.00,7.00 to 8.00,6.00 to 7.00,7.00 to 8.00,6.00 to 7.00,7.00 to 8.00,7.00 to 8.00,6.00 to 7.00
CCn1c(-c2cccnc2[C@H](C)OC)c2c3cc(ccc31)-c1csc(n1)C[C@H](NC(=O)C1CC1)C(=O)N1CCC[C@H](N1)C(=O)OCC(C)(C)C2 [Compound A367],7.00 to 8.00,6.00 to 7.00,6.00 to 7.00,5.00 to 6.00,6.00 to 7.00,5.00 to 6.00,6.00 to 7.00,6.00 to 7.00,6.00 to 7.00
CCn1c(-c2cccnc2[C@H](C)OC)c2c3cc(ccc31)-c1cc(O)cc(c1)C[C@H](NC(=O)[C@H](C(C)C)N(C)C(=O)[C@@H]1CCCC[C@@H]1N)C(=O)N1CCC[C@H](N1)C(=O)OCC(C)(C)C2 [Compound A395],> 8.00,7.00 to 8.00,7.00 to 8.00,7.00 to 8.00,7.00 to 8.00,7.00 to 8.00,7.00 to 8.00,7.00 to 8.00,6.00 to 7.00

# The remaining lines, values ahead:
pIC50 (NCI-H358 (K-Ras G12C)),pIC50 (KRAS WT),pIC50 (NRAS G12C),pIC50 (KRAS G13D),pIC50 (KRAS G13C),pIC50 (KRAS G12D),pIC50 (KRAS G12S),pIC50 (KRAS G12C),pIC50 (KRAS G12V),Compound
> 8.00,7.00 to 8.00,7.00 to 8.00,6.00 to 7.00,6.00 to 7.00,6.00 to 7.00,7.00 to 8.00,7.00 to 8.00,6.00 to 7.00,CCn1c(-c2cccnc2[C@H](C)OC)c2c3cc(ccc31)-c1csc(n1)C[C@H](NC(=O)[C@H](C(C)C)N(C)C(=O)N1CCN(C(C)=O)CC1)C(=O)N1CCC[C@H](N1)C(=O)OCC(C)(C)C2 [Compound A291]
> 8.00,6.00 to 7.00,6.00 to 7.00,5.00 to 6.00,5.00 to 6.00,5.00 to 6.00,5.00 to 6.00,6.00 to 7.00,5.00 to 6.00,CCn1c(-c2cccnc2[C@H](C)OC)c2c3cc(ccc31)-c1csc(n1)C[C@H](NC(=O)[C@H](C(C)C)N(C)C(=O)N1C[C@@H](C)N(C)C[C@@H]1C)C(=O)N1CCC[C@H](N1)C(=O)OCC(C)(C)C2 [Compound A292]
> 8.00,6.00 to 7.00,6.00 to 7.00,6.00 to 7.00,6.00 to 7.00,5.00 to 6.00,6.00 to 7.00,6.00 to 7.00,6.00 to 7.00,CCn1c(-c2cccnc2[C@H](C)OC)c2c3cc(ccc31)-c1csc(n1)C[C@H](NC(=O)[C@H](C(C)C)N(C)C(=O)N1CC(N3CCC3)C1)C(=O)N1CCC[C@H](N1)C(=O)OCC(C)(C)C2 [Compound A295]
> 8.00,5.00 to 6.00,5.00 to 6.00,5.00 to 6.00,5.00 to 6.00,< 5.00,5.00 to 6.00,5.00 to 6.00,5.00 to 6.00,CCn1c(-c2cccnc2[C@H](C)OC)c2c3cc(ccc31)-c1csc(n1)C[C@H](NC(=O)[C@H](C(C)C)N1CCCN(C)C1=O)C(=O)N1CCC[C@H](N1)C(=O)OCC(C)(C)C2 [Compound A317]
